# Data taken from patent publication US4816441A, “Peptides and compositions” (priority 1985, dated 1989).
# Legend:
# [1] = system: complement system; experiment: Activation of complement: generation of C5a des-Arg in normal human serum (RIA); assay type: biochemical; conditions: 60 minutes incubation, aliquots at 0, 30, 60 minutes, FIG. 4
# Method: In order to investigate the influence of the compounds of the invention on the complement system a test was performed in which the generation of the complement split product C5a was used as a measure of the activation of complement.
# Aliquots were taken after 0, 30, and 60 minutes and the generated C5a des-Arg was quantitated by a commercial RIA-kit (Upjohn Company, Kalamazoo, MI).
# [2] = system: Raji; experiment: NK-like activity of PBL incubated with SpA peptides or intact SpA, 51Cr release, Raji targets; assay type: cell-based, human; conditions: E/T 10:1
# Method: (§1) K-cell activity is here defined as the increase in cell mediated cytotoxicity of normal peripheral blood leukocytes (PBL) against tumor derived target cells. PBL were isolated by the Boyum method (Scand.J.Clin.Lab.Invest. 22 (1968) 77) by centrifugation of heparinized blood from healthy donors on Ficoll-Hypaque® (Pharmacia, Uppsala, Sweden). In many experiments adherent cells were removed by incubating PBL in sterile glass bottles at 37° C. for 1 to 2 hours.
# (§2) The cell lines were kept in culture in RPMI 1640 (Gibco, Paisley, Scotland, Cat. No. 041-1875) to which was added fetal calf serum (10% v/v) (FCS) as well as penicillin (100 IU/ml) and streptomycin (100 μg/ml) at 37° C. and carbon dioxide in air.
# (§3) The target cells were labelled with ^51 Cr (New England Nuclear, Dreieich, West Germany).
# (§4) The medium used was RPMI 1640 to which was added 10% of FCS, penicillin (100 IU/ml) and streptomycin (100 μg/ml). After incubation, the cell density was adjusted and the cells were distributed in round-bottom microtiter plates (NUNC, Roskilde, Denmark). ^51 Cr-labeled K562 target cells were added to a desired ratio between effector (E) and target (T) cells (E/T 10:1). After a further 4 hours of incubation at 37° C. with 6% CO2 in air, the plates were placed on a Titertek® microtiter plate shaker (Flow Laboratories Ltd., Ayrshire, Scotland). The microtiter plates were centrifuged and known volumes of the supernatant removed by suction and counted ^51 Cr-sample). As maximum value (^51 Cr-max), use was made of the supernatant from K562 incubated with saponin. The spontaneous release of ^51 Cr (^51 Cr-spont) was measured by incubating ^51 Cr-K562 without effector cells.
# (§5) Kill %: […]
# (§6) The method employed was practically the same as above for Daudi and Raji targets. The only substantial difference was that no preincubation was performed prior to addition of the ^51 Cr-labelled target cells, and the complete incubation of effector and target cells was done in 24 hours. The Kill % was calculated as described above.
# [3] = system: Daudi; experiment: NK-like activity of PBL incubated with SpA peptides or intact SpA, 51Cr release, Daudi targets; assay type: cell-based, human; conditions: E/T 10:1
# Method: as §1, §2, §3, §4, §5, §6
# [4] = system: Daudi; experiment: Long-term test, LAK-like activity, Daudi targets; assay type: cell-based, human; conditions: 20 μg/ml; E/T 10:1
# Method: 6×10^6 monocyte-depleted mononuclear cells were incubated in 6 ml RPMI 1640 +5% FCS, penicillin (100 IU/ml) and streptomycin (100 μg/ml) in vertically suspended Falcon flasks (Falcon Plastics, Oxnard, CA., USA, Cat. No. 3013). As in the short-term test, 1.5, 6, 25 or 100 μg peptide per ml, respectively, were added. […] Incubation for 72 h at 37° C., 7% CO2. The cells were counted, density adjusted and the cells incubated together with ^51 Cr-labelled Raji and Daudi target cells. E/T ratios were: 10:1 and 20:1. In the Daudi test the incubation lasted 16 hours, in the Raji test it was 18 hours (round-bottom microtiter plates, as above).
# [5] = Guinea pig model: anaphylactoid-like reaction after intravenous administration; assay type: in vivo, guinea pigs of Dunkin-Hartley strain; conditions: anaesthesized artificially ventilated guinea pigs
# Method: Guinea pigs of Dunkin-Hartley strain (ca. 500 g) were anaesthesized with sodium pentobarbital and were surgically prepared with a catheter in the jugular vein for drug infusion. The blood pressure was registered from a carotid artery. The animals were artificially ventilated by a Harvard small animal respirator at a cycle of 38 insufflations per min. and a volume of 1 ml per 100 g animal.
substance,measurement,setting,value
"SpA: protein A from Staphylococcus aureus, purified, from Pharmacia, Uppsala, Sweden",Activation of complement (C5a des-Arg generation),[1],considerable C5a generating capacity
same,% kill Raji,[2]; 5 μg/ml (12.5 pmol/ml),31%
same,% kill Raji,[2]; 5 μg/ml (125 pmol/ml),46%
same,% kill Raji,[2]; 10 μg/ml (250 pmol/ml),46%
same,% kill Daudi,[3]; 5 μg/ml (12.5 pmol/ml),66%
same,% kill Daudi,[3]; 5 μg/ml (125 pmol/ml),71%
same,% kill Daudi,[3]; 10 μg/ml (250 pmol/ml),77%
same,"Stimulation index, long-term assay (LAK-like activity), Daudi",[4],1.19
same,"Anaphylactoid-like reaction (bronchoconstriction, hypertension, later hypotension)",[5],produced an anaphylactoid-like reaction
